Counter-ions that a name gives are not always drawn.
What was measured:
[1] = Evaluation of hygroscopicity: water content (K.F.) after exposure to humid conditions; type: physicochemical; conditions: for change in water content under humid conditions: 75% and 90% RH, up to 1 week
Protocol: Then, the water content (K.F. water %) of the samples was measured.

[2] = Stability on stringent 60° C. heat treatment (HPLC content); conditions: for chemical stability at high temperature: 60° C. heat treatment
Protocol: The inorganic acid salts of sibutramine, prepared in Examples 1, 2 and 3, and sibutramine hydrochloride monohydrate were exposed to a stringent 60° C. heat treatment.
HPLC was performed under the following conditions. Wavelength of UV detection: 225 nm
Column: octadecyl silica gel, C18 (4.6×150 mm, 5 μm)

[3] = Light stability test, fluorescent light at 25° C., ICH chamber (HPLC content); type: physicochemical
Protocol: A light stability test was performed as follows.

[4] = Evaluation of solubility in solutions having various pH values
From the text: In Table 8, the solubility is expressed as milligrams (mg) of sibutramine dissolved per milliliter (ml) of solution.

[5] = 75% relative humidity, 25 °C, 1 week
[6] = 75% relative humidity, 25 °C, 3 days
[7] = 90% relative humidity, 25 °C, 1 week
[8] = 90% relative humidity, 25 °C, 3 days
[9] = fluorescent light, 25° C., 1 wk
[10] = fluorescent light, 25° C., 2 wks
[11] = fluorescent light, 25° C., 4 wks

Row | Molecule | change in water content under humid conditions [1] | water content (K.F. water %) [1, 5] [%] | water content (K.F. water %) [1, 6] [%] | water content (K.F. water %) [1, 7] [%] | water content (K.F. water %) [1, 8] [%] | water content (K.F. water %) ([1]; Initial) [%] | chemical stability at high temperature [2] | content (HPLC) on 60° C. heat treatment ([2]; 60° C., 1 wk) | content (HPLC) on 60° C. heat treatment ([2]; 60° C., 2 wks) | content (HPLC) on 60° C. heat treatment ([2]; 60° C., 4 wks) | content (HPLC) on 60° C. heat treatment ([2]; Initial) | content (HPLC) on exposure to fluorescent light ([3]; Initial) | content (HPLC) on exposure to fluorescent light [3, 9] | content (HPLC) on exposure to fluorescent light [3, 10] | content (HPLC) on exposure to fluorescent light [3, 11] | further results
1 | sibutramine phosphate monohydrate [Sibutramine phosphate hydrate] | almost no change in water content | 4.25 | 4.24 | 4.26 | 4.25 | 4.25 | good chemical stability | 1.000 | 0.999 | 1.000 | 1.000 | 1.000 | 1.000 | 0.999 | 0.999 | 
2 | CC(C)CC(N(C)C)C1(c2ccc(Cl)cc2)CCC1 (stereo not shown) [Sibutramine HCl hydrate, sibutramine hydrochloride monohydrate, reference compound] | almost no change in water content | 5.5 | 5.49 | 5.49 | 5.5 | 5.5 | good chemical stability | 1.000 | 0.999 | 0.999 | 1.000 | 1.000 | 1.000 | 0.999 | 0.999 | light stability ([3]; fluorescent light, 25° C., content by HPLC): good light stability
3 | sibutramine bromate | almost no change in water content | 0.09 | 0.09 | 0.08 | 0.08 | 0.09 | good chemical stability | 0.999 | 1.000 | 0.999 | 1.000 | 1.000 | 1.000 | 0.999 | 0.999 | solubility (mg of sibutramine dissolved per ml of solution) ([4]; DW (distilled water), dissolved at 37° C.): 12.78 mg/mL; solubility (mg of sibutramine dissolved per ml of solution) ([4]; pH 1.2, dissolved at 37° C.): 12.43 mg/mL; solubility (mg of sibutramine dissolved per ml of solution) ([4]; pH 4.0, dissolved at 37° C.): 3.64 mg/mL; solubility (mg of sibutramine dissolved per ml of solution) ([4]; pH 5.3, dissolved at 37° C.): 8.96 mg/mL; solubility (mg of sibutramine dissolved per ml of solution) ([4]; pH 6.8, dissolved at 37° C.): 11.08 mg/mL; solubility (mg of sibutramine dissolved per ml of solution) ([4]; pH 7.4, dissolved at 37° C.): 12.41 mg/mL
4 | sibutramine hydrogen sulfate | almost no change in water content | 0.01 | 0.02 | 0.03 | 0.03 | 0.02 | good chemical stability | 1.000 | 0.999 | 0.999 | 1.000 | 1.000 | 1.000 | 1.000 | 0.999 | 
